The structures appear in SMILES notation.

The target in one experiment is T1, KRas^G12D (Homo sapiens, UniProt P01116, G12D).
T1 construct: Biotinylated KRas (corresponding to amino acids 1-169, produced at Accelegan Inc.); biotin (biotinylated); purchased Accelegan Inc
The experiment is described as follows: KRas binding assay (TR-FRET tracer displacement), KRas G12D.

A further experiment concerns the target T2, KRas^G12R (Homo sapiens, UniProt P01116, G12R).
T2 construct: Biotinylated KRas (corresponding to amino acids 1-169, produced at Accelegan Inc.); biotin (biotinylated); purchased Accelegan Inc
Kind of experiment: KRas binding assay (TR-FRET tracer displacement), KRas G12R.

The next experiment addresses T3, KRas^G12V (Homo sapiens, UniProt P01116, G12V).
T3 construct: Biotinylated KRas (corresponding to amino acids 1-169, produced at Accelegan Inc.); biotin (biotinylated); purchased Accelegan Inc
Kind of experiment: KRas binding assay (TR-FRET tracer displacement), KRas G12V.

Experiment [1] concerns KRas-mediated phosphorylation of ERK in AsPC-1 cells. The experiment is described as follows: Inhibition of KRas-mediated phosphorylation of ERK (Cisbio HTRF pERK), AsPC-1 cells. Particulars: Homo sapiens, ASPC1, AsPC-1 cells; HTRF pERK. It counts as cell-based. The essentials: (§1)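 Compound treatment lasts 3 hrs on 6,000 seeded cells, testing 10 doses from a 10 uM top concentration in 3-fold decrements at 0.8% final DMSO. Trametinib at 0.2 uM defines the Min signal. Detection is HTRF on cold-lysed cell extracts.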

In experiment [2] the test system is KRas-mediated phosphorylation of ERK in H727 cells. Kind of experiment: Inhibition of KRas-mediated phosphorylation of ERK (Cisbio HTRF pERK), H727 cells. It counts as cell-based. Particulars: Homo sapiens, NCI-H727, H727 cells; HTRF pERK. The method in brief:
as §1

T1 sequence (P01116 1-169 isoform P01116-2 G12D): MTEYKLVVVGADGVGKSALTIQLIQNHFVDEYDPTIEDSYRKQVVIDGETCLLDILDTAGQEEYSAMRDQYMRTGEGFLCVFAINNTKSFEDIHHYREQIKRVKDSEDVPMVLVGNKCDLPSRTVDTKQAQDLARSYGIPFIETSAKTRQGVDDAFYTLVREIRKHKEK
T3 sequence (P01116 1-169 isoform P01116-2 G12V): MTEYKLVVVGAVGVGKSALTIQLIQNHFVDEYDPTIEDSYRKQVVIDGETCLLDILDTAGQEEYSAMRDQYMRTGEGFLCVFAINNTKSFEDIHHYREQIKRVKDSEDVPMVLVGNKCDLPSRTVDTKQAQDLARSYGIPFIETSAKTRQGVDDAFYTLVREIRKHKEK
T2 sequence (P01116 1-169 isoform P01116-2 G12R): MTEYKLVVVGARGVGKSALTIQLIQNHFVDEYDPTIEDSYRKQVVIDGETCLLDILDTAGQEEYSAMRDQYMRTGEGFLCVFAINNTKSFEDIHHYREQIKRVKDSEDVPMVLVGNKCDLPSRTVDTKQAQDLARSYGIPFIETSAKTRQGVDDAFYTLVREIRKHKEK

As to `CCc1c(F)ccc2cc(O)cc(-c3ncc4c(NCc5cc(C(=O)N(C)C)nn5[C@H]5C[C@@H](O)C5)nc(OC[C@@]56CCCN5C[C@H](F)C6)nc4c3F)c12` [Example 678, 5-(((7-(8-ethyl-7-fluoro-3-hydroxynaphthalen-1-yl)-8-fluoro-2-(((2R,7aS)-2-fluorohexahydro-1H-pyrrolizin-7a-yl)methoxy)pyrido[4,3-d]pyrimidin-4-yl)amino)methyl)-1-(cis-3-hydroxycyclobutyl)-N,N-dimethyl-1H-pyrazole-3-carboxamide], the IC50 was 89 nM on KRas^G12D; 16 nM at KRas^G12R; 11 nM at KRas^G12V; greater than 10000 nM in experiment [1]; greater than 10000 nM in experiment [2].
`CCc1c(F)ccc2cc(O)cc(-c3ncc4c(N5CC6(CO)CC(C7CC7)(C5)C6)nc(OC[C@@]56CCCN5C[C@H](F)C6)nc4c3F)c12` [Example 613, 4-(4-(1-cyclopropyl-5-(hydroxymethyl)-3-azabicyclo[3.1.1]heptan-3-yl)-8-fluoro-2-(((2R,7aS)-2-fluorohexahydro-1H-pyrrolizin-7a-yl)methoxy)pyrido[4,3-d]pyrimidin-7-yl)-5-ethyl-6-fluoronaphthalen-2-ol]: the IC50 is 54800 nM at KRas^G12D; 27500 nM on KRas^G12R; 21800 nM at KRas^G12V; greater than 10000 nM in experiment [1]; greater than 10000 nM in experiment [2].
As for `CCc1c(F)ccc2cc(O)cc(-c3ncc4c(N5CCCn6nc(S(N)(=O)=O)cc6C5)nc(OC[C@@]56CCCN5C[C@H](F)C6)nc4c3F)c12` [Example 661, 5-(7-(8-ethyl-7-fluoro-3-hydroxynaphthalen-1-yl)-8-fluoro-2-(((2R,7aS)-2-fluorohexahydro-1H-pyrrolizin-7a-yl)methoxy)pyrido[4,3-d]pyrimidin-4-yl)-5,6,7,8-tetrahydro-4H-pyrazolo[1,5-a][1,4]diazepine-2-sulfonamide], the IC50 was 680 nM on KRas^G12D; 699 nM at KRas^G12R; 1740 nM at KRas^G12V; greater than 10000 nM in experiment [1]; greater than 10000 nM in experiment [2].
As for `CCc1c(F)ccc2cc(O)cc(-c3ncc4c(N5CCCn6nc(C(=O)N(C)C)cc6C5)nc(N5CC(N)C5)nc4c3F)c12` [Example 529, 5-(2-(3-aminoazetidin-1-yl)-7-(8-ethyl-7-fluoro-3-hydroxynaphthalen-1-yl)-8-fluoropyrido[4,3-d]pyrimidin-4-yl)-N,N-dimethyl-5,6,7,8-tetrahydro-4H-pyrazolo[1,5-a][1,4]diazepine-2-carboxamide], the IC50 at KRas^G12D was 14 nM; at KRas^G12R, 36 nM; at KRas^G12V it was 21 nM; in experiment [1], greater than 10000 nM; in experiment [2], greater than 10000 nM.
Take `CCc1c(F)ccc2cc(O)cc(-c3ncc4c(N5CCC6(CNC(=O)OC6)C5)nc(OC[C@@]56CCCN5C[C@H](F)C6)nc4c3F)c12` (stereo partly drawn) [Example 598, 2-(7-(8-ethyl-7-fluoro-3-hydroxynaphthalen-1-yl)-8-fluoro-2-(((2R,7aS)-2-fluorotetrahydro-1H-pyrrolizin-7a(5H)-yl)methoxy)pyrido[4,3-d]pyrimidin-4-yl)-7-oxa-2,9-diazaspiro[4.5]decan-8-one]: the IC50 on KRas^G12D was 820 nM; at KRas^G12R, 66 nM; at KRas^G12V, 84 nM; in experiment [1], greater than 10000 nM; in experiment [2], greater than 10000 nM.
`CCc1c(F)ccc2cc(O)cc(-c3ncc4c(N5CC6(CO)CC(C7CCCC7)(C5)C6)nc(OC[C@@]56CCCN5C[C@H](F)C6)nc4c3F)c12` [Example 648, 4-(4-(1-cyclopentyl-5-(hydroxymethyl)-3-azabicyclo[3.1.1]heptan-3-yl)-8-fluoro-2-(((2R,7aS)-2-fluorohexahydro-1H-pyrrolizin-7a-yl)methoxy)pyrido[4,3-d]pyrimidin-7-yl)-5-ethyl-6-fluoronaphthalen-2-ol]: the IC50 at KRas^G12D was 9120 nM; at KRas^G12R, 7370 nM; on KRas^G12V, 6080 nM; in experiment [1] it was greater than 10000 nM; in experiment [2], greater than 10000 nM.
In the case of `CCc1c(F)ccc2cc(O)cc(-c3ncc4c(NCc5cc(C(=O)N(C)C)nn5C[C@H]5C[C@@H](O)C5)nc(OC[C@@]56CCCN5C[C@H](F)C6)nc4c3F)c12` [Example 687, 5-(((7-(8-ethyl-7-fluoro-3-hydroxynaphthalen-1-yl)-8-fluoro-2-(((2R,7aS)-2-fluorohexahydro-1H-pyrrolizin-7a-yl)methoxy)pyrido[4,3-d]pyrimidin-4-yl)amino)methyl)-1-((cis-3-hydroxycyclobutyl)methyl)-N,N-dimethyl-1H-pyrazole-3-carboxamide], the 50% inhibitory concentration (IC50) was 405 nM at KRas^G12D; 175 nM at KRas^G12R; 145 nM at KRas^G12V; greater than 10000 nM in experiment [1]; greater than 10000 nM in experiment [2].
On to `CCc1c(F)ccc2cc(O)cc(-c3ncc4c(N5CCOC[C@@](C)(COC)C5)nc(OC[C@@]56CCCN5C[C@H](F)C6)nc4c3F)c12` [Example 602, 5-ethyl-6-fluoro-4-(8-fluoro-2-(((2R,7aS)-2-fluorotetrahydro-1H-pyrrolizin-7a(5H)-yl)methoxy)-4-((R)-6-(methoxymethyl)-6-methyl-1,4-oxazepan-4-yl)pyrido[4,3-d]pyrimidin-7-yl)naphthalen-2-ol], for which the half-maximal inhibitory concentration (IC50) on KRas^G12D came to 484 nM; on KRas^G12R it was 161 nM; at KRas^G12V it was 243 nM; in experiment [1] it was 5460 nM; in experiment [2], 3870 nM.
For the molecule `CCc1c(F)ccc2cc(O)cc(-c3ncc4c(N5CCCC6(C5)NC(=O)NC6=O)nc(N5CC(C)(N)C5)nc4c3F)c12` (stereo not shown) [Example 531, 7-(2-(3-amino-3-methylazetidin-1-yl)-7-(8-ethyl-7-fluoro-3-hydroxynaphthalen-1-yl)-8-fluoropyrido[4,3-d]pyrimidin-4-yl)-1,3,7-triazaspiro[4.5]decane-2,4-dione], the IC50 at KRas^G12D was 5 nM; at KRas^G12R it was less than 2 nM; at KRas^G12V it was less than 2 nM; in experiment [1], greater than 10000 nM; in experiment [2] it was greater than 10000 nM.
As for `CCc1c(F)ccc2cc(O)cc(-c3ncc4c(N5CCC(CC6CCOC6)C5)nc(OC[C@@]56CCCN5C[C@H](F)C6)nc4c3F)c12` (stereo partly drawn) [Example 596, 5-ethyl-6-fluoro-4-(8-fluoro-2-(((2R,7aS)-2-fluorohexahydro-1H-pyrrolizin-7a-yl)methoxy)-4-(3-((tetrahydrofuran-3-yl)methyl)pyrrolidin-1-yl)pyrido[4,3-d]pyrimidin-7-yl)naphthalen-2-ol], the IC50 was 805 nM on KRas^G12D; 434 nM at KRas^G12R; 94 nM on KRas^G12V; greater than 10000 nM in experiment [1]; 2450 nM in experiment [2].
Regarding `CCc1c(F)ccc2cc(O)cc(-c3ncc4c(N5CCC6(CC5)CC[S+]6[O-])nc(OC[C@@]56CCCN5C[C@H](F)C6)nc4c3F)c12` (stereo partly drawn) [Example 603, 7-(7-(8-ethyl-7-fluoro-3-hydroxynaphthalen-1-yl)-8-fluoro-2-(((2R,7aS)-2-fluorotetrahydro-1H-pyrrolizin-7a(5H)-yl)methoxy)pyrido[4,3-d]pyrimidin-4-yl)-1-thia-7-azaspiro[3.5]nonane 1-oxide], the half-maximal inhibitory concentration (IC50) at KRas^G12D is 1630 nM; on KRas^G12R, 453 nM; at KRas^G12V it was 590 nM; in experiment [1], greater than 10000 nM; in experiment [2] it was greater than 10000 nM.
On to `CCc1c(F)ccc2cc(O)cc(-c3ncc4c(N5CCC(n6cnnc6)C5)nc(OC[C@@]56CCCN5C[C@H](F)C6)nc4c3F)c12` (stereo partly drawn) [Example 564, 4-(4-(3-(4H-1,2,4-triazol-4-yl)pyrrolidin-1-yl)-8-fluoro-2-(((2R,7aS)-2-fluorotetrahydro-1H-pyrrolizin-7a(5H)-yl)methoxy)pyrido[4,3-d]pyrimidin-7-yl)-5-ethyl-6-fluoronaphthalen-2-ol], for which the half-inhibitory concentration (IC50) was 640 nM at KRas^G12D; 31 nM at KRas^G12R; 16 nM on KRas^G12V; greater than 10000 nM in experiment [1]; greater than 10000 nM in experiment [2].
As for `CCc1c(F)ccc2cc(O)cc(-c3ncc4c(N5CCC(N6C(=O)OC7CN(C(C)=O)CC76)CC5)nc(OC[C@@]56CCCN5C[C@H](F)C6)nc4c3F)c12` (stereo partly drawn) [Example 689, 5-acetyl-3-(1-(7-(8-ethyl-7-fluoro-3-hydroxynaphthalen-1-yl)-8-fluoro-2-(((2R,7aS)-2-fluorotetrahydro-1H-pyrrolizin-7a(5H)-yl)methoxy)pyrido[4,3-d]pyrimidin-4-yl)piperidin-4-yl)hexahydro-2H-pyrrolo[3,4-d]oxazol-2-one], the IC50 at KRas^G12D is 1650 nM; at KRas^G12R it was 349 nM; at KRas^G12V it was 98 nM; in experiment [1], greater than 10000 nM; in experiment [2] it was greater than 10000 nM.
In the case of `CCc1c(F)ccc2cc(O)cc(-c3ncc4c(NCc5cn(C(=O)N(C)C)nc5N)nc(OC[C@@]56CCCN5C[C@H](F)C6)nc4c3F)c12` [Example 639, 3-amino-4-(((7-(8-ethyl-7-fluoro-3-hydroxynaphthalen-1-yl)-8-fluoro-2-(((2R,7aS)-2-fluorohexahydro-1H-pyrrolizin-7a-yl)methoxy)pyrido[4,3-d]pyrimidin-4-yl)amino)methyl)-N,N-dimethyl-1H-pyrazole-1-carboxamide], the half-maximal inhibitory concentration (IC50) at KRas^G12D came out at 13 nM; on KRas^G12R it was 2 nM; at KRas^G12V, 2 nM; in experiment [1] it was 1040 nM; in experiment [2], 718 nM.

Values taken from patent US20260015350A1, “AZAQUINAZOLINE PAN-KRAS INHIBITORS” (Mirati Therapeutics, Inc., priority 2022, published 2026).
